Measurements reported in US20080004272A1, “Compositions and methods for modulating gated ion channels” (PainCeptor Pharma Corporation, priority 2006, published 2008).
pIC50: −log10 of the molar value.

Legend:
ASIC1a [1] = molecular target: T1, ASIC1a (Homo sapiens, UniProt P78348); experiment: Two-electrode voltage clamp in Xenopus laevis oocytes (Xo), acid-induced currents; assay type: cell-based; parameters: expressed in transfected cells; host or cells: Xenopus laevis oocytes (nuclear microinjection of expression vector such as pcDNA3); details: Xenopus oocytes; for inhibition at 50 µM: read-out: % inh. at 50 μM (Xo)
T1 sequence (P78348 1-528): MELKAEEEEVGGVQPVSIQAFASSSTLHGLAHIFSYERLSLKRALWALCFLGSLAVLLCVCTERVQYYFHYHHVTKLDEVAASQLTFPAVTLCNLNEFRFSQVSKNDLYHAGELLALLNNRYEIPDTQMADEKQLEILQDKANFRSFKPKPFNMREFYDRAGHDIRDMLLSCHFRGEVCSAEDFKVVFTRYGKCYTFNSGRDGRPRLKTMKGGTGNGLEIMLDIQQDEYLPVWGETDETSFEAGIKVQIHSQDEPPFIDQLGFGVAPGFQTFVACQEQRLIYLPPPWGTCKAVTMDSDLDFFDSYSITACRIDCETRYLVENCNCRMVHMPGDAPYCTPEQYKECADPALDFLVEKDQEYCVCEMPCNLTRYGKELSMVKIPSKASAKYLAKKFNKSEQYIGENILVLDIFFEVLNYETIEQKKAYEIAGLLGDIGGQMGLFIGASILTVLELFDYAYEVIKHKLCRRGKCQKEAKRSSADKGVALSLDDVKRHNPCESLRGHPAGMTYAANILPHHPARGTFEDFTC
Experimental: Two-electrode voltage clamp electrophysiological assays in Xenopus laevis oocytes expressing gated ion channels are performed as follows:
Oocytes are surgically removed from adult Xenopus laevis and treated for 2 h at room temperature with 1 mg/ml type I collagenase (Sigma) in Barth's solution under mild agitation. Selected oocytes at stage IV-V are defolliculated manually before nuclear microinjection of 2.5-5 ng of a suitable expression vector, such as pcDNA3, comprising the nucleotide sequence encoding a gated ion channel subunit protein. In such an experiment, the oocytes express homomultimeric proton-gated ion channels on their surface. In an alternate experiment, one, two, three or more vectors comprising the coding sequences for distinct gated ion channel subunits are co-injected in the oocyte nuclei. In the latter case, oocytes express heteromultimeric proton-gated ion channels. For example, ASIC2a and/or ASIC3 subunits in pcDNA3 vector are co-injected at a 1:1 cDNA ratio. After 2-4 days of expression at 19° C. in Barth's solution containing […] gentamicin and 1.8 mM CaCl2, gated ion channels are activated by applying an acidic solution (pH<7) and currents are recorded in a two electrode voltage-clamp configuration, using an OC-725B amplifier (Warner Instruments). Currents are acquired and digitized at 500 Hz on an Apple Imac G3 computer with an A/D NB-MIO-16XL interface (National Instruments) and recorded traces are post-filtered at 100 Hz in Axograph (Axon Instruments) (Neher, E. and Sakmann, B. (1976) Nature 260:799-802). Once impaled with the microelectrodes, oocytes are continuously superfused at 10-12 ml/min with a modified Ringer's solution containing 97 mM NaCl, 2 mM KCl, 1.8 mM CaCl2, and 10 mM HEPES brought to pH 7.4 with NaOH (Control Ringer). Test Ringer solution is prepared by replacing HEPES with MES and adjusting the pH to the desired acidic value. Compounds of the present invention are prepared in both the Control and Test Ringer solutions and applied to oocytes at room temperature through a computer-controlled switching valve system. Osmolarity of all solutions is adjusted to 235 mOsm with choline chloride. Similarly, recordings can also be acquired in an automated multichannel oocytes system as the OpusExpress™ (Molecular Devices, Sunnyvale, USA).
FIGS. 1A and 2A illustrate the inhibitory effects of Compounds 203 and 206 on acid-induced activation of recombinant homomeric hASIC1a channels.

ASIC1a [2] = molecular target: T1, ASIC1a; experiment: Calcium imaging of MES-induced calcium response (FLIPR); assay type: cell-based; parameters: host or cells: HEK293; details: ASIC1a expressing HEK293 cells, MES-induced calcium response; read-out: IC50 (FLIPR)
Experimental: […] Confluency of cells should be 80-90% on day of plating. Cells are rinsed with 10 ml of PBS and cells are re-suspended by addition of culture medium and trituration with a 25 ml pipette.
The cells are seeded at a density of approximately 1×10^6 cells/ml (100 μl/well) in black-walled, clear bottom, 96-well plates pre-treated with 10 mg/l poly-D-lysin (75 μl/well for ≧30 min). Plated cells are allowed to proliferate for 24 h before loading with dye.
Fluo-4/AM (1 mg, Molecular Probes) is dissolved in 912 μl DMSO. The Fluo-4/AM stock solution (1 mM) is diluted with culture medium to a final concentration of 2 μM (loading solution).
The culture medium is aspirated from the wells, and 50 μl of the Fluo-4/AM loading solution is added to each well. The cells are incubated at 37° C. for 30 min.
Following the second wash, 100 μl modified Assay Buffer is added to each well and the fluorescence is measured in FLIPR™ or FlexStation™ (Molecular Devices, USA), or any other suitable equipment known to the skilled in the art.
Temperature: Room temperature (20-22° C.)
First addition: 50 μl test solution at a rate of 30 μl/sec and a starting height of […]
Second addition: 50 μl MES solution (20 mM, 5 mM final concentration) at a rate of 35 μl/sec and a starting height of 150 μl.
Reading intervals: pre-incubation−10 sec×7 and 3 sec×3 antagonist phase−3 sec×7 and 10 sec×12
Addition plates (compound test plate and MES plate) are placed on the right and left positions in the FLIPR tray, respectively. Cell plates are placed in the middle position and the ASIC1a program is effectuated. FLIPR will then take the appropriate measurements in accordance with the interval settings above. Fluorescence obtained after stimulation is corrected for the mean basal fluorescence (in modified Assay Buffer).
The MES-induced peak calcium response, in the presence of test substance, is expressed relatively to the MES response alone. Test substances that block the MES-induced calcium response are re-tested in triplicates.

SMILES	inhibition at 50 µM (ASIC1a [1]) [%]	other results
COc1ccc(F)cc1Nc1ccc([N+](=O)[O-])c2c1CCN(C)C2 [Compound 6]	< 25	
COc1ccc(F)cc1Nc1ccc(N)c2c1CCN(C)C2 [Compound 7]	< 25	
COc1ccc(F)cc1Oc1ccc([N+](=O)[O-])c2cnccc12 [Compound 8]	< 25	
COc1ccc(F)cc1Oc1ccc([N+](=O)[O-])c2c1CCN(C)C2 [Compound 10]	< 25	
COc1ccc(F)cc1Oc1ccc([N+](=O)[O-])c2c[n+](C)ccc12 [Compound 11]	< 25	
COc1ccc(F)cc1Oc1cc2c(c3c1CCN(C)C3)NC(=O)/C2=N/O [Compound 12]	50 to 70	
COc1ccc(F)cc1Oc1cc2c(c3c1CCN(C)C3)NC(=O)C2=O [Compound 13]	< 25	
CN1CCc2c(-c3ccccc3)cc3c(c2C1)NC(=O)/C3=N/OC1CCCCO1 (centres unmarked) [Compound 61]		inhibition at 30 µM (ASIC1a [1]; 30 μM, read-out: % inh. at 30 μM (Xo)): > 50%
COCCOCO/N=C1/C(=O)Nc2c1cc(-c1ccccc1)c1c2CN(C)CC1 [Compound 62]		inhibition at 100 µM (ASIC1a [1]; 100 μM, read-out: % inh. at 100 μM (Xo)): > 50%
CCOC(C)O/N=C1/C(=O)Nc2c1cc(-c1ccccc1)c1c2CN(C)CC1 (centres unmarked) [Compound 63]	30 to 50	
CC(=O)OCCOCO/N=C1/C(=O)Nc2c1cc(-c1ccccc1)c1c2CN(C)CC1 [Compound 64]	< 25	
COC(=O)c1ccccc1CO/N=C1/C(=O)Nc2c1cc(-c1ccccc1)c1c2CN(C)CC1 [Compound 65]	20 to 40	
O=C1Nc2c(cc(-c3ccccc3)c3c2CCCC3)/C1=N/O [Compound 114]		pIC50 (ASIC1a [2]): < 4.15
CCOC(=O)N1CCc2c(Br)ccc(NC(=O)CCl)c2C1 [Compound 145]		pIC50 (ASIC1a [2]): < 4.15
CN1CCc2c(Br)ccc(NC(=O)CCl)c2C1 [Compound 146]	< 25	
O=C(/C=N/O)Nc1ccc(-c2ccccc2)c2ccncc12 [Compound 152]		pIC50 (ASIC1a [2]): < 4.15
CN1CCc2c(-c3ccccc3)ccc(NC(=O)CC(=O)O)c2C1 [Compound 153]		pIC50 (ASIC1a [2]): < 4.15
CC(=O)Nc1c([N+](=O)[O-])cc(-c2ccccc2)c2c1CN(C)CC2 [Compound 154]		pIC50 (ASIC1a [2]): < 4.15
CC(=O)Nc1c(C(N)=O)cc(-c2ccccc2)c2c1CN(C)CC2 [Compound 164]	< 25	
COC(=O)CN(C(C)=O)c1ccc(-c2ccccc2)c2c1CN(C)CC2 [Compound 169]	< 25	
O=C(/C=N/O)Nc1ccc(-c2ccccc2)c2c1CNCC2 [Compound 171]	< 25	
CN1CCc2c(cccc2-c2ccccc2)C1 [Compound 173]		pIC50 (ASIC1a [2]): < 4.15
CN1CCc2c(-c3ccccc3)cc(C#N)c(Br)c2C1 [Compound 175]	< 25	
CN1CCc2c(-c3ccccc3)cc(C#N)c(Cl)c2C1 [Compound 176]	< 25	
CN1CCc2c(-c3ccccc3S(=O)(=O)N(C)C)cc3c(c2C1)NC(=O)/C3=N\O [Compound 223]		pIC50 (ASIC1a [2]): < 4.15

Now from value to compound, other results behind:

inhibition at 50 µM (ASIC1a [1]) [%]	SMILES	other results
20 to 40	COCCOCN1C(=O)/C(=N/O)c2cc(-c3ccccc3)c3c(c21)CN(C)CC3 [Compound 66]	
< 25	CCOC(C)O/N=C1/C(=O)Nc2c1cc(-c1cc(F)ccc1OC)c1c2CN(C)CC1 (centres unmarked) [Compound 67]	
20 to 40	CN1CCc2c(-c3ccccc3)cc3c(c2C1)NCC/C3=N/O [Compound 96]	
< 25	CN1CCc2c(-c3ccccc3)cc3[nH]c(=O)c(=O)[nH]c3c2C1 [Compound 100]	
< 25	CN1CCc2c(-c3ccccc3)cc3ncc(O)nc3c2C1 [Compound 101]	
20 to 40	CN1CCc2c(-c3ccccc3)cc3c(c2C1)NC(=O)C3=NNC(=O)C(N)=O [Compound 107]	
< 25	CNN=C1C(=O)Nc2c1cc(-c1ccccc1)c1c2CN(C)CC1 [Compound 108]	
< 25	CN1CCc2c(-c3ccccc3)cc3c(c2C1)NC(=O)C3=NNCCO [Compound 109]	
< 25	CCOC(=O)CC(=O)NN=C1C(=O)Nc2c1cc(-c1ccccc1)c1c2CN(C)CC1 [Compound 110]	
< 25	CC(=O)NN=C1C(=O)Nc2c1cc(-c1ccccc1)c1c2CN(C)CC1 [Compound 112]	
< 25	CN1CCc2c(-c3ccccc3)cc3c(c2C1)NC(=O)C3=NNC(=O)c1ccc(O)cc1O [Compound 113]	
< 25	CN1CCc2c(-c3ccccc3)ccc(CNC(=O)c3ccccc3)c2C1 [Compound 116]	
20 to 40	CCOC(=O)CN(Cc1ccccc1)Cc1ccc(-c2ccccc2)c2c1CN(C(=O)OCC)CC2 [Compound 122]	
< 25	CCOC(=O)N1CCc2c(-c3ccccc3)ccc(CN(CC(=O)O)Cc3ccccc3)c2C1 [Compound 123]	
< 25	CCOC(=O)N1CCc2c(Br)cc(C(=O)CCl)c(N)c2C1 [Compound 163]	
20 to 40	CC(C)(C)OC(=O)N1CCc2c(-c3ccccc3)ccc(NCC(=O)O)c2C1 [Compound 165]	
< 25	CN1CCc2c(-c3ccccc3)cc(C(=O)NOCc3ccccc3)c(N)c2C1 [Compound 166]	
< 25	COC(=O)CNc1ccc(-c2ccccc2)c2c1CN(C(=O)OC(C)(C)C)CC2 [Compound 167]	
< 25	CC(C)(C)OC(=O)N1CCc2c(-c3ccccc3)ccc(N)c2C1 [Compound 168]	
< 25	CC(C)(C)OC(=O)N1CCc2c(-c3ccccc3)ccc(NCC(=O)Oc3ccccc3)c2C1 [Compound 170]	
< 25	CCN(CC)C(=O)c1cc(-c2cc(F)ccc2OC)cc(C)c1N [Compound 188, 4-Amino-5′-fluoro-2′-methoxy-5-methyl-biphenyl-3-carboxylic acid diethylamide]	
< 25	CCN(CC)C(=O)c1cc(-c2cc(F)ccc2OC)cc(C)c1N(C(=O)N1CCOCC1)C(=O)N1CCOCC1 [Compound 190, Morpholine-4-carboxylic acid (5-diethylcarbamoyl-5′-fluoro-2′-methoxy-3-methyl-biphenyl-4-yl)-(morpholine-4-carbonyl)-amide]	
